The source of these data is ChEMBL document CHEMBL1135412, “Synthesis and in vitro evaluation of quaternary ammonium derivatives of chlorambucil and melphalan, anticancer drugs designed for the chemotherapy of chondrosarcoma” (J Med Chem, 2002).

The subject of data set [1] is M4Beu cell line. As to the kind of experiment: Comparative cellular uptake study performed on M4 Beu (melanoma cell line). The format is functional, Homo sapiens.
Data set [2] relates to MCF7S. The data set can be described thus: In vitro cytotoxic activity against MCF7, by colony forming assay. The format is functional, cell-based. Particulars: Homo sapiens.
A short description of data set [3]: Comparative cellular uptake study performed on H-EMC-SS (chondrosarcoma cell line). The format is functional, Homo sapiens.
Data set [4] in a line: Glutathione-s-transferase activity of the compound, expressed as percentage of control. The format is functional.
A short description of data set [5]: In vitro cytotoxicity activity against M4 Dau, by colony forming assay. The format is functional.
Data set [6] deals with M4Beu cell line. As to the kind of experiment: In vitro cytotoxic activity against M4 Beu cells, by colony forming assay. The format is functional, cell-based. Particulars: Homo sapiens.
Data set [7] in a line: In vitro cytotoxicity in chondrosarcoma cell line (H-EMC-SS) by Alamar blue assay. The format is functional. Particulars: Homo sapiens.
Data set [8] in a line: In vitro cytotoxicity in chondrosarcoma cell line (H-EMC-SS) by Hoechst 33342 DNA Fluorometric assay. The format is functional. Particulars: Homo sapiens.
In data set [9] the test system is B16. The data set can be described thus: In vitro cytotoxicity activity against B16 cells, by colony forming assay. Particulars: Mus musculus. The format is functional, cell-based.
Data set [10] is described as follows: Alkylating activity of compound was determined by the NBP assay at 570 nm. It is filed as functional.
Data set [11] is described as follows: Partition coefficient (logD) (octanol/phosphate buffer). It is filed as physicochemical.
Data set [12] relates to M4Beu cell line. As to the kind of experiment: In vitro cytotoxicity activity against M4 Beu, by colony forming assay. The format is functional, cell-based. Particulars: Homo sapiens.
The subject of data set [13] is MCF7S. As to the kind of experiment: In vitro cytotoxicity activity against MCF7, by colony forming assay. It is filed as functional, cell-based. Particulars: Homo sapiens.
Data set [14] relates to B16. The data set can be described thus: In vitro cytotoxicity activity against B16, by colony forming assay. The format is functional, cell-based. Particulars: Mus musculus.
Data set [15] has as its system B16. The data set can be described thus: In vitro cytotoxic activity against B16, by colony forming assay. The format is functional, cell-based. Particulars: Mus musculus.
Data set [16] can be described thus: In vitro cytotoxic activity against M4 Dau, by colony forming assay. It is filed as functional.
A short description of data set [17]: In vitro cytotoxicity activity against M4 Dau by colony forming assay. It is filed as functional.
The test system of data set [18] is MCF7S. The data set can be described thus: In vitro cytotoxicity activity against MCF-7. Particulars: Homo sapiens. It is filed as functional, cell-based.

As a reminder, the IC50 is the concentration needed to halve the response being measured. One may read the CC50 as the concentration giving 50% cytotoxicity. As a reminder, the logD is lipophilicity at a set pH, counting ionised and neutral species. As for `O=C(O)CCCc1ccc(N(CCCl)CCCl)cc1` [CHLORAMBUCIL], the Cellular uptake was 18.4 pmol/µL in data set [1] and 2.73 pmol/µL in [3]. The IC50 in [2] stood at 1700 nM; in [5], 1500 nM; in [6], 5.1 µM; in data set [9] it was 5.1 µM. In data set [4], the Glutathione-S-transferase activity (% of control) came out at 60.4%. For the same compound, the CC50 in data set [7] is 3500 nM; in data set [8], 2700 nM. Further, the Alkylating activity in data set [10] is 30.2 10e3·k. This compound also returned a logD in data set [11] (octanol/water) of 0.75.
In the case of `C[N+](C)(C)CCCNC(=O)C(N)Cc1ccc(N(CCCl)CCCl)cc1.[Cl-]` (centres undefined), the IC50 in [12] was 14.4 µM; in data set [13] it was 900 nM; in [5], 3300 nM; in data set [14], 19.5 µM. In addition, the values for the Cellular uptake in data set [1] and in [3] were 6.82 pmol/µL and 1.54 pmol/µL, respectively. In addition, the Glutathione-S-transferase activity (% of control) in data set [4] was determined as 79%. The CC50 in [7] was 1800 nM; in data set [8], 1200 nM. Further, in data set [10], the Alkylating activity was 15.7 10e3·k. The pH-dependent lipophilicity (logD) in data set [11] is -1.12.
`C[N+](C)(C)CCCNC(=O)CCCc1ccc(N(CCCl)CCCl)cc1.[I-]`: the Cellular uptake turned out to be 16.7 pmol/µL in data set [1] and 2.97 pmol/µL in [3]. For the same compound, the half-maximal inhibitory concentration (IC50) was found to be 1200 nM in [2], 5.1 µM in [6], 8.6 µM in data set [15] and 1300 nM in data set [16]. In addition, in [4], the Glutathione-S-transferase activity (% of control) stood at 55.4%. For the same compound, the half-maximal cytotoxic concentration (CC50) in [7] was determined as 700 nM; in data set [8], 600 nM. In data set [10], the Alkylating activity is 40.4 10e3·k. Further, the pH-dependent lipophilicity (logD) in data set [11] came out at 0.32.
Turning to `N[C@@H](Cc1ccc(N(CCCl)CCCl)cc1)C(=O)O` [MELPHALAN], the IC50 in [12] came out at 1.2 µM; in data set [14] it was 2.2 µM; in data set [17] it was 500 nM; in data set [18], 300 nM. Besides, the Cellular uptake in [1] is 21.9 pmol/µL; in [3] it was 2.88 pmol/µL. The compound further had a Glutathione-S-transferase activity (% of control) in [4] of 85.3%. In addition, the CC50 in [7] turned out to be 1600 nM; in data set [8] it was 900 nM. Also, in [10], the Alkylating activity is 10.3 10e3·k. Further, the pH-dependent lipophilicity (logD) in [11] came to 0.11.
